# Assay results reported in article PMC10110893, “[…]-derived synthetic cannabinoids inhibit T-type calcium channels with divergent effects on seizures in rodent models of epilepsy” (Frontiers in Physiology, 2023).
# Key:
# human Cav3.1 [1] = target: T1, human Cav3.1 (Homo sapiens, UniProt O43497); assay: FLIPR calcium flux assay, Cav3.1; assay type: cell-based
# T1 construct: expressed in transfected cells; host or cells: HEK293 FlpIn T-Rex cells (Invitrogen)
# Procedure: HEK293 FlpIn T-Rex cells (Invitrogen, CA, United States) stably expressing human Cav3.1, Cav3.2, or Cav3.3 were maintained in Dulbecco’s Modified Eagle Medium (DMEM) supplemented with 10% foetal bovine serum (FBS), 1% penicillin-streptomycin (P/S) at 37°C, and 5% CO2 as previously described ([Bladen et al., 2021]; [Udoh et al., 2022]). Hygromycin (80 μg/mL) and blasticidin (15 μg/mL) were used as selection antibiotics and cells were passaged at 80% confluency. For experiments, cells were resuspended in Leibovitz’s L-15 media (containing 1% FBS, 1% P/S, 15 mM glucose, 2 μg/mL tetracycline), plated in black, clear-bottomed poly-D-lysine-coated 96-well plates (90 μL) (Corning, NY, United States), and incubated overnight in ambient air at 37°C. All compounds tested in cellular assays were prepared as stock solutions in DMSO and final DMSO concentration was 0.1%.
# Intracellular calcium flux was measured using a fluorometric imaging plate-reader (FLIPR) Calcium 5 Assay Kit and FlexStation 3 Microplate Reader (Molecular Devices, San Jose, United States). Calcium 5 dye (90 μL) prepared in low potassium HBSS (Thermo Fisher Scientific) containing (in mM) 145 NaCl, 22 HEPES, 0.338 Na2HPO4, 4.17 NaHCO3, 0.441 KH2PO4, 0.407 MgSO4, 0.493 MgCl2, 1.26 CaCl2, 5.56 glucose, and […] with pH 7.4 was applied to each well and incubated for 1 h at 37°C, ambient air prior to testing.
# Fluorescence readings were taken at 2 s intervals (λ excitation = 485 nm, λ emission = 525 nm). Following 2 min baseline reading, 20 μL of SB2193, SB2193F, or NNC 55-0396 (10 nM—10 μM) was added to cells and read for 5 min, then CaCl2 (10 mM) was added and read for 3 min. Baseline fluorescence averaged over the 20 s interval preceding CaCl2 addition was subtracted and normalized to the vehicle response. Changes in fluorescence were measured in relative fluorescence units (RFU). All compounds were assayed in ≥ five independent experiments (n = 5–8) performed in duplicate. Order of compound addition and location on the plate were varied between replicates. Data was fit to a four-parameter non-linear dose-response curve using GraphPad Prism 8.2.0 software (La Jolla, United States) to determine IC50 values.
# human Cav3.1 [2] = target: T1, human Cav3.1; assay: Whole-cell patch-clamp electrophysiology, Cav3.1; assay type: cell-based
# Procedure: All whole-cell voltage-clamp recordings from HEK293 FlpIn T-Rex cells stably transfected with human Cav3.1 were performed at room temperature. At least 24 h prior to experiments, cells were detached from flasks using trypsin/EDTA and plated into 10 cm sterile tissue culture dishes containing 10 mL of supplemented DMEM and 10–15 glass coverslips (12 mm diameter, ProScitech, QLD, Australia). Culture dishes were then kept overnight in same conditions as flasks to allow cells to adhere to coverslips. They were then transferred to a 30°C/5% CO2 incubator to inhibit cell proliferation until ready to be used for electrophysiology experiments. At this stage, channel expression was induced with tetracycline (2 μg/mL, Sigma-Aldrich) 8–24 h prior to recording cells.
# External recording solutions contained (in mM): 114 CsCl, 5 BaCl2, 1 MgCl2, 10 HEPES, 10 glucose, adjusted to pH 7.4 with CsOH. The internal patch pipette solution contained (in mM): 126.5 CsMeSO4, 2 MgCl2, 11 EGTA, 10 HEPES adjusted to pH 7.3 with CsOH. […] Liquid junction potentials for the above solutions were calculated before experiments using pClamp 10 software and corrected during experiments. […] Currents were elicited from a holding potential of −100 mV and were measured by conventional whole-cell patch clamp techniques using an Axopatch 200B amplifier in combination with Clampex 9.2 software (Molecular Devices, Sunnyvale, CA). […]
# [3] = Aqueous solubility (dosing observation); assay type: physicochemical; details: prevented assessment at doses above 100 mg/kg
# Procedure: SB2193 and SB2193F were prepared in ethanol-Tween 80%–0.9% saline (1:1:18 ratio) and valproic acid in 0.9% saline. All doses were completely soluble in this vehicle except for the 100 mg/kg SB2193 dose, which was a suspension.
# [4] = test system: cannabinoid CB1 receptors; set-up: method as in Kevin et al., 2022; details: ref Kevin et al., 2022; cited from earlier work
# T1 sequence (O43497 whole entry): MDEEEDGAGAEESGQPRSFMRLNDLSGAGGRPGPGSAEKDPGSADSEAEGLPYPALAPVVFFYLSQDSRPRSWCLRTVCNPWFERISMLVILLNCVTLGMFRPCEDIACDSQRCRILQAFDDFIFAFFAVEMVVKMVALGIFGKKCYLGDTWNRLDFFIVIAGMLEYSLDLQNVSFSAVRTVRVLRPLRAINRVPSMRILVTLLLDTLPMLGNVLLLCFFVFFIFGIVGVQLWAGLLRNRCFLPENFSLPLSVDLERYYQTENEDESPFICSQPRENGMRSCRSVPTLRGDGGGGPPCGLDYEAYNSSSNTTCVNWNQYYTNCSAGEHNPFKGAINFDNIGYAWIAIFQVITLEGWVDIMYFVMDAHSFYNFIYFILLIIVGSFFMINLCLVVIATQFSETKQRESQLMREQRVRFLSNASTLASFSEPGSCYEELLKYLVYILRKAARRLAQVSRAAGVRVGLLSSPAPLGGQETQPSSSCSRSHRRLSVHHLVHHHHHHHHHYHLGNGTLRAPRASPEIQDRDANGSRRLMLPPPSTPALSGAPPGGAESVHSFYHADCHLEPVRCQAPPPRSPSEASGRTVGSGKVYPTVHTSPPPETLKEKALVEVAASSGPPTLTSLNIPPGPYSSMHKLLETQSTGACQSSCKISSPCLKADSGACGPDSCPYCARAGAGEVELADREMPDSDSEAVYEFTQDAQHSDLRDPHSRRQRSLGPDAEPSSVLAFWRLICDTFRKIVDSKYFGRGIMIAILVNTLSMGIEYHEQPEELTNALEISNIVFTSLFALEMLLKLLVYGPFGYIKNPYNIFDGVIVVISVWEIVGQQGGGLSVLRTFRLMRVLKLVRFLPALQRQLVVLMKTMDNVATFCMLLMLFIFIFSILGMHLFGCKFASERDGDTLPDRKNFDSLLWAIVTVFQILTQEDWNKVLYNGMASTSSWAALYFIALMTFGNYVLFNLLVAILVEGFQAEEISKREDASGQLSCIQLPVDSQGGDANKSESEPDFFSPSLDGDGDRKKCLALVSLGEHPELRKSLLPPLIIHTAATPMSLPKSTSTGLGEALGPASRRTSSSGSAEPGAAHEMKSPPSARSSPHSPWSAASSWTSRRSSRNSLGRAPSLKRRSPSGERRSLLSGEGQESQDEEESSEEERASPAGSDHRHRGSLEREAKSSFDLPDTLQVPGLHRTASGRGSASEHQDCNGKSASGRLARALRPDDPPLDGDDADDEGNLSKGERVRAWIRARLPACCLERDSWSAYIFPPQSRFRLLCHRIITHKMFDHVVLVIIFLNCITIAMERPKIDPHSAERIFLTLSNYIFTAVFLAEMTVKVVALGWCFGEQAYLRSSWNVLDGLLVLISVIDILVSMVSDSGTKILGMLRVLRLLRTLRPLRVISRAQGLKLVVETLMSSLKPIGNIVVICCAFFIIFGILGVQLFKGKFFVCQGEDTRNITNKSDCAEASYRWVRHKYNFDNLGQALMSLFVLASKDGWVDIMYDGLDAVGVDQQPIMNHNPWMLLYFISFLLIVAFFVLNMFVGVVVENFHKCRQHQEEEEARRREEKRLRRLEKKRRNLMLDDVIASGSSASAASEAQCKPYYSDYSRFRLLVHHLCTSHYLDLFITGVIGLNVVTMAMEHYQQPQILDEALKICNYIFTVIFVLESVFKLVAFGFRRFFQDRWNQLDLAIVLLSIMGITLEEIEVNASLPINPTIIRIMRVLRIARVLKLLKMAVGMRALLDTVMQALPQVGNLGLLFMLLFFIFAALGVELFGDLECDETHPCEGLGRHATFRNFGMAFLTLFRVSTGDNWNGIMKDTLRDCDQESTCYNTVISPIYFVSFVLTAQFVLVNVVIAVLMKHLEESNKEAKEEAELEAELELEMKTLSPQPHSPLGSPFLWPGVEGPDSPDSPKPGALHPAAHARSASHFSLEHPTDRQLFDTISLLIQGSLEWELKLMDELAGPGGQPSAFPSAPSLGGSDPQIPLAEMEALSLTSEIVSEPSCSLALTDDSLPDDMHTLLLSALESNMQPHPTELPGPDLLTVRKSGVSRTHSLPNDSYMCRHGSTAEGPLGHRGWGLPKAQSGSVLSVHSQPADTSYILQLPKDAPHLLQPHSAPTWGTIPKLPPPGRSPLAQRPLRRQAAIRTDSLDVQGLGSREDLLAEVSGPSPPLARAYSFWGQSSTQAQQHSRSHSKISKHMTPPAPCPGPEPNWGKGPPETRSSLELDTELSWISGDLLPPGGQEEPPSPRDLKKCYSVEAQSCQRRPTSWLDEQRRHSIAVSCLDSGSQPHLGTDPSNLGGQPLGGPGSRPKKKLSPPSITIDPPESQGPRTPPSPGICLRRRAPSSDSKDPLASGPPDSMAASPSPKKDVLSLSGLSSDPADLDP
structure (smiles),measurement,setting,value
CCCCCn1cc(C(=O)N2CCN(C(=O)OC(C)(C)C)CC2)c2ccccc21 [SB2193],IC50,human Cav3.1 [1],750 nM
same,potency in patch clamp less than that determined by the FLIPR assay,"human Cav3.1 [2]; Cav3.1, patch clamp vs FLIPR",approximately 4 fold
same,IC50,"human Cav3.1 [2]; whole-cell patch clamp, n = 7–8, read-out: Cav3.1 pIC50 (converted)",3550 nM
same,aqueous solubility,[3],poor aqueous solubility
same,activity at cannabinoid CB1 receptors,[4],minimal activity
